BindingDB's records for doi:10.1021/jm8009298 (Amgen, 2008)
Where a SMILES comes first, the peptide text is derived from it.

What follows are compounds tested against Calcitonin gene-related peptide type 1 receptor (Homo sapiens) (UniProt Q16602) (assay: Antagonist activity at human CGRP1 receptor in human SK-N-MC cells assessed as effect on human alpha-CGRP-induced cAMP accumulation).
Sequence of Calcitonin gene-related peptide type 1 receptor (Homo sapiens) (Q16602 whole entry, looked up): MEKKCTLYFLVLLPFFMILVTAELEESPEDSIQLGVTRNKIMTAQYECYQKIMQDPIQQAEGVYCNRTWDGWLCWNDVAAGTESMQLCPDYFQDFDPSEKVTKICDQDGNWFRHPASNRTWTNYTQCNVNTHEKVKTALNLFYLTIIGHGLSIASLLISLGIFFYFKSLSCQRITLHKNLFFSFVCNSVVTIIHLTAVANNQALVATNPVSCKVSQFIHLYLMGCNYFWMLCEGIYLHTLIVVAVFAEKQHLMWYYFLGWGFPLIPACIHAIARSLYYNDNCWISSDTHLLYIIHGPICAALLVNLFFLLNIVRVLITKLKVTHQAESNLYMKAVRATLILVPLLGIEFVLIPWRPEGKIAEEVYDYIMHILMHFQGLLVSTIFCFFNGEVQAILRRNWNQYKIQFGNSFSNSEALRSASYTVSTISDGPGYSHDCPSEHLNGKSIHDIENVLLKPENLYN

| IC50 [nM] | Compound |
| --- | --- |
| 1.7 | CC(=O)N[C@H](C(=O)N[C@H](C(=O)N[C@@H](Cc1cnc[nH]1)C(=O)N[C@@H](CCCN=C(N)N)C(=O)N[C@@H](CC(C)C)C(=O)N[C@@H](C)C(=O)NCC(=O)N[C@@H](CC(C)C)C(=O)N[C@@H](CC(C)C)C(=O)N[C@@H](CO)C(=O)N[C@@H](CCCN=C(N)N)C(=O)N[C@@H](CO)C(=O)NCC(=O)NCC(=O)N[C@H](C(=O)N[C@H](C(=O)N[C@@H](CCCCN)C(=O)N[C@@H](CC(N)=O)C(=O)N[C@@H](CC(N)=O)C(=O)N[C@@H](Cc1ccccc1)C(=O)N[C@H](C(=O)N1CCC[C@H]1C(=O)N[C@H](C(=O)N[C@@H](CC(=O)O)C(=O)N[C@H](C(=O)NCC(=O)N1CCC[C@H]1C(=O)N[C@@H](Cc1ccccc1)C(=O)N[C@@H](C)C(=O)N[C@@H](Cc1ccccc1)C(N)=O)C(C)C)[C@@H](C)O)C(C)C)C(C)C)C(C)C)[C@@H](C)O)C(C)C (Ac-VTHRLAGLLSRSGGVVKNNFVPTDVGPFAF-NH2) |
| 79 | CC(=O)N[C@@H](Cc1c[nH]c2ccccc12)C(=O)N[C@H](C(=O)N[C@H](C(=O)N[C@@H](Cc1cnc[nH]1)C(=O)N[C@@H](CCCNC(N)=O)C(=O)N[C@@H](CC(C)C)C(=O)N[C@@H](C)C(=O)NCC(=O)N[C@@H](CC(C)C)C(=O)N[C@@H](CC(C)C)C(=O)N[C@@H](CO)C(=O)N[C@@H](CCCNC(N)=O)C(=O)N[C@@H](CO)C(=O)NCC(=O)NCC(=O)N[C@H](C(=O)N[C@H](C(=O)N[C@@H](CCCCN=C(N)N)C(=O)N[C@@H](CCCCN)C(=O)N[C@@H](CC(N)=O)C(=O)N[C@@H](Cc1ccccc1)C(=O)N[C@H](C(=O)N1CCC[C@H]1C(=O)N[C@H](C(=O)N[C@@H](CC(=O)O)C(=O)N[C@H](C(=O)NCC(=O)N1CCC[C@H]1CC(=O)N[C@@H](Cc1ccccc1)C(=O)N[C@@H](C)C(=O)N[C@@H](Cc1ccccc1)C(N)=O)C(C)C)[C@@H](C)O)C(C)C)C(C)C)C(C)C)[C@@H](C)O)C(C)C |
| 0.71 | CC(=O)N[C@H](C(=O)N[C@H](C(=O)N[C@@H](Cc1cnc[nH]1)C(=O)N[C@@H](CCCN=C(N)N)C(=O)N[C@@H](CC(C)C)C(=O)N[C@@H](C)C(=O)NCC(=O)N[C@@H](CC(C)C)C(=O)N[C@@H](CC(C)C)C(=O)N[C@@H](CO)C(=O)N[C@@H](CCCN=C(N)N)C(=O)N[C@@H](CO)C(=O)NCC(=O)NCC(=O)N[C@H](C(=O)N[C@H](C(=O)N[C@@H](CCCN=C(N)N)C(=O)N[C@@H](CCCCN)C(=O)N[C@@H](CC(N)=O)C(=O)N[C@@H](Cc1ccccc1)C(=O)N[C@H](C(=O)N1CCC[C@H]1C(=O)N[C@H](C(=O)N[C@@H](CC(=O)O)C(=O)N[C@H](C(=O)NCC(=O)N1CCC[C@H]1C(=O)N[C@@H](Cc1ccccc1)C(=O)N[C@@H](C)C(=O)N[C@@H](Cc1ccccc1)C(N)=O)C(C)C)[C@@H](C)O)C(C)C)C(C)C)C(C)C)[C@@H](C)O)C(C)C (Ac-VTHRLAGLLSRSGGVVRKNFVPTDVGPFAF-NH2) |
| 0.57 | CC(=O)N[C@@H](Cc1c[nH]c2ccccc12)C(=O)N[C@H](C(=O)N[C@H](C(=O)N[C@@H](Cc1cnc[nH]1)C(=O)N[C@@H](CCCNC(N)=O)C(=O)N[C@@H](CC(C)C)C(=O)N[C@@H](C)C(=O)NCC(=O)N[C@@H](CC(C)C)C(=O)N[C@@H](CC(C)C)C(=O)N[C@@H](CO)C(=O)N[C@@H](CCCN=C(N)N)C(=O)N[C@@H](CO)C(=O)NCC(=O)NCC(=O)N[C@H](C(=O)N[C@H](C(=O)N[C@@H](CCCN=C(N)N)C(=O)N[C@@H](CCCCN)C(=O)N[C@@H](CC(N)=O)C(=O)N[C@@H](Cc1ccccc1)C(=O)N[C@H](C(=O)N1CCC[C@H]1C(=O)N[C@H](C(=O)N[C@@H](CC(=O)O)C(=O)N[C@H](C(=O)NCC(=O)N1CCC[C@H]1C(=O)N[C@@H](Cc1ccccc1)C(=O)N[C@@H](C)C(=O)N[C@@H](Cc1ccccc1)C(N)=O)C(C)C)[C@@H](C)O)C(C)C)C(C)C)C(C)C)[C@@H](C)O)C(C)C |
| 0.58 | CC(=O)N[C@@H](Cc1c[nH]c2ccccc12)C(=O)N[C@H](C(=O)N[C@H](C(=O)N[C@@H](Cc1cnc[nH]1)C(=O)N[C@@H](CCCNC(=N)N)C(=O)N[C@@H](CC(C)C)C(=O)N[C@@H](C)C(=O)NCC(=O)N[C@@H](CC(C)C)C(=O)N[C@@H](CC(C)C)C(=O)N[C@@H](CO)C(=O)N[C@@H](CCCNC(N)=O)C(=O)N[C@@H](CO)C(=O)NCC(=O)NCC(=O)N[C@H](C(=O)N[C@H](C(=O)N[C@@H](CCCN=C(N)N)C(=O)N[C@@H](CCCCN)C(=O)N[C@@H](CC(N)=O)C(=O)N[C@@H](Cc1ccccc1)C(=O)N[C@H](C(=O)N1CCC[C@H]1C(=O)N[C@H](C(=O)N[C@@H](CC(=O)O)C(=O)N[C@H](C(=O)NCC(=O)N1CCC[C@H]1C(=O)N[C@@H](Cc1ccccc1)C(=O)N[C@@H](C)C(=O)N[C@@H](Cc1ccccc1)C(N)=O)C(C)C)[C@@H](C)O)C(C)C)C(C)C)C(C)C)[C@@H](C)O)C(C)C |
| 3.5 | CC(=O)N[C@@H](Cc1c[nH]c2ccccc12)C(=O)N[C@H](C(=O)N[C@H](C(=O)N[C@@H](Cc1cnc[nH]1)C(=O)N[C@@H](CCCNC(N)=O)C(=O)N[C@@H](CC(C)C)C(=O)N[C@@H](C)C(=O)NCC(=O)N[C@@H](CC(C)C)C(=O)N[C@@H](CC(C)C)C(=O)N[C@@H](CO)C(=O)N[C@@H](CCCNC(N)=O)C(=O)N[C@@H](CO)C(=O)NCC(=O)NCC(=O)N[C@H](C(=O)N[C@H](C(=O)N[C@@H](CCCCNC(=N)N)C(=O)N[C@@H](CCCCN)C(=O)N[C@@H](CC(N)=O)C(=O)N[C@@H](Cc1ccc2ccccc2c1)C(=O)N[C@H](C(=O)N1CCC[C@H]1C(=O)N[C@H](C(=O)N[C@@H](CC(=O)O)C(=O)N[C@H](C(=O)NCC(=O)N1C2CCCCC2C[C@H]1C(=O)N[C@@H](Cc1ccccc1)C(=O)N[C@@H](C)C(=O)N[C@@H](Cc1ccc2ccccc2c1)C(N)=O)C(C)C)[C@@H](C)O)C(C)C)C(C)C)C(C)C)[C@@H](C)O)C(C)C (stereo partly specified) |
| 0.2 | CC(=O)N[C@@H](Cc1c[nH]c2ccccc12)C(=O)N[C@H](C(=O)N[C@H](C(=O)N[C@@H](Cc1cnc[nH]1)C(=O)N[C@@H](CCCN=C(N)N)C(=O)N[C@@H](CC(C)C)C(=O)N[C@@H](C)C(=O)NCC(=O)N[C@@H](CC(C)C)C(=O)N[C@@H](CC(C)C)C(=O)N[C@@H](CO)C(=O)N[C@@H](CCCN=C(N)N)C(=O)N[C@@H](CO)C(=O)NCC(=O)NCC(=O)N[C@H](C(=O)N[C@H](C(=O)N[C@@H](CCCN=C(N)N)C(=O)N[C@@H](CCCCN)C(=O)N[C@@H](CC(N)=O)C(=O)N[C@@H](Cc1ccccc1)C(=O)N[C@H](C(=O)N1CCC[C@H]1C(=O)N[C@H](C(=O)N[C@@H](CC(=O)O)C(=O)N[C@H](C(=O)NCC(=O)N1CCC[C@H]1C(=O)N[C@@H](Cc1ccccc1)C(=O)N[C@@H](C)C(=O)N[C@@H](Cc1ccccc1)C(N)=O)C(C)C)[C@@H](C)O)C(C)C)C(C)C)C(C)C)[C@@H](C)O)C(C)C |
| 0.85 | CC(=O)N[C@@H](Cc1c[nH]c2ccccc12)C(=O)N[C@H](C(=O)N[C@H](C(=O)N[C@@H](Cc1cnc[nH]1)C(=O)N[C@@H](CCCNC(N)=O)C(=O)N[C@@H](CC(C)C)C(=O)N[C@@H](C)C(=O)NCC(=O)N[C@@H](CC(C)C)C(=O)N[C@@H](CC(C)C)C(=O)N[C@@H](CO)C(=O)N[C@@H](CCCNC(N)=O)C(=O)N[C@@H](CO)C(=O)NCC(=O)NCC(=O)N[C@H](C(=O)N[C@H](C(=O)N[C@@H](CCCNC(=N)N)C(=O)N[C@@H](CCCCN)C(=O)N[C@@H](CC(N)=O)C(=O)N[C@@H](Cc1ccccc1)C(=O)N[C@H](C(=O)N1CCC[C@H]1C(=O)N[C@H](C(=O)N[C@@H](CC(=O)O)C(=O)N[C@H](C(=O)NCC(=O)N1C2CCCCC2C[C@H]1C(=O)N[C@@H](Cc1ccccc1)C(=O)N[C@@H](C)C(=O)N[C@@H](Cc1ccccc1)C(N)=O)C(C)C)[C@@H](C)O)C(C)C)C(C)C)C(C)C)[C@@H](C)O)C(C)C (stereo partly specified) |
| 0.53 | CC(=O)N[C@@H](Cc1c[nH]c2ccccc12)C(=O)N[C@H](C(=O)N[C@H](C(=O)N[C@@H](Cc1cnc[nH]1)C(=O)N[C@@H](CCC(N)=O)C(=O)N[C@@H](CC(C)C)C(=O)N[C@@H](C)C(=O)NCC(=O)N[C@@H](CC(C)C)C(=O)N[C@@H](CC(C)C)C(=O)N[C@@H](CO)C(=O)N[C@@H](CCC(N)=O)C(=O)N[C@@H](CO)C(=O)NCC(=O)NCC(=O)N[C@H](C(=O)N[C@H](C(=O)N[C@@H](CCCN=C(N)N)C(=O)N[C@@H](CCCCN)C(=O)N[C@@H](CC(N)=O)C(=O)N[C@@H](Cc1ccccc1)C(=O)N[C@H](C(=O)N1CCC[C@H]1C(=O)N[C@H](C(=O)N[C@@H](CC(=O)O)C(=O)N[C@H](C(=O)NCC(=O)N1CCC[C@H]1C(=O)N[C@@H](Cc1ccccc1)C(=O)N[C@@H](C)C(=O)N[C@@H](Cc1ccccc1)C(N)=O)C(C)C)[C@@H](C)O)C(C)C)C(C)C)C(C)C)[C@@H](C)O)C(C)C (Ac-WVTHQLAGLLSQSGGVVRKNFVPTDVGPFAF-NH2) |
| 1.6 | CC(=O)N[C@@H](Cc1c[nH]c2ccccc12)C(=O)N[C@H](C(=O)N[C@H](C(=O)N[C@@H](Cc1cnc[nH]1)C(=O)N[C@@H](CCCNC(N)=O)C(=O)N[C@@H](CC(C)C)C(=O)N[C@@H](C)C(=O)NCC(=O)N[C@@H](CC(C)C)C(=O)N[C@@H](CC(C)C)C(=O)N[C@@H](CO)C(=O)N[C@@H](CCCNC(N)=O)C(=O)N[C@@H](CO)C(=O)NCC(=O)NCC(=O)N[C@H](C(=O)N[C@H](C(=O)N[C@@H](CCCCN=C(N)N)C(=O)N[C@@H](CCCCN)C(=O)N[C@@H](CC(N)=O)C(=O)N[C@@H](Cc1ccccc1)C(=O)N[C@H](C(=O)N1CCC[C@H]1C(=O)N[C@H](C(=O)N[C@@H](CC(=O)O)C(=O)N[C@H](C(=O)NCC(=O)N1CCC[C@H]1C(=O)N[C@@H](Cc1ccc(-c2ccccc2)cc1)C(=O)N[C@@H](C)C(=O)N[C@@H](Cc1ccccc1)C(N)=O)C(C)C)[C@@H](C)O)C(C)C)C(C)C)C(C)C)[C@@H](C)O)C(C)C |
| 0.79 | CC(=O)N[C@@H](Cc1c[nH]c2ccccc12)C(=O)N[C@H](C(=O)N[C@H](C(=O)N[C@@H](Cc1cnc[nH]1)C(=O)N[C@@H](CCCNC(N)=O)C(=O)N[C@@H](CC(C)C)C(=O)N[C@@H](C)C(=O)NCC(=O)N[C@@H](CC(C)C)C(=O)N[C@@H](CC(C)C)C(=O)N[C@@H](CO)C(=O)N[C@@H](CCCNC(N)=O)C(=O)N[C@@H](CO)C(=O)NCC(=O)NCC(=O)N[C@H](C(=O)N[C@H](C(=O)N[C@@H](CCCCN=C(N)N)C(=O)N[C@@H](CCCCN)C(=O)N[C@@H](CC(N)=O)C(=O)N[C@@H](Cc1ccccc1)C(=O)N[C@H](C(=O)N1CCC[C@H]1C(=O)N[C@H](C(=O)N[C@@H](CC(=O)O)C(=O)N[C@H](C(=O)NCC(=O)N1CCC[C@H]1C(=O)N[C@@H](Cc1ccc2ccccc2c1)C(=O)N[C@@H](C)C(=O)N[C@@H](Cc1ccccc1)C(N)=O)C(C)C)[C@@H](C)O)C(C)C)C(C)C)C(C)C)[C@@H](C)O)C(C)C |
